According to patent publication US6927230B2, “Triazole derivatives” (Fujisawa Pharmaceutical Co., Ltd., priority 2001, dated 2005):
Read-outs that look alike come from different tables or passages of the source.

Assays:
[1] = molecular target: T1, COX-II (Homo sapiens, UniProt P35354); assay: Whole blood assay for COX-II (LPS-induced PGE2 production); assay type: cell-based
T1 construct: lipopolysaccharide for 24 hr at 37 C for induction of COX-2; from tissue; host or cells: fresh heparinized human whole blood from volunteers, LPS-stimulated for 24 hr
T1 sequence (P35354 18-604): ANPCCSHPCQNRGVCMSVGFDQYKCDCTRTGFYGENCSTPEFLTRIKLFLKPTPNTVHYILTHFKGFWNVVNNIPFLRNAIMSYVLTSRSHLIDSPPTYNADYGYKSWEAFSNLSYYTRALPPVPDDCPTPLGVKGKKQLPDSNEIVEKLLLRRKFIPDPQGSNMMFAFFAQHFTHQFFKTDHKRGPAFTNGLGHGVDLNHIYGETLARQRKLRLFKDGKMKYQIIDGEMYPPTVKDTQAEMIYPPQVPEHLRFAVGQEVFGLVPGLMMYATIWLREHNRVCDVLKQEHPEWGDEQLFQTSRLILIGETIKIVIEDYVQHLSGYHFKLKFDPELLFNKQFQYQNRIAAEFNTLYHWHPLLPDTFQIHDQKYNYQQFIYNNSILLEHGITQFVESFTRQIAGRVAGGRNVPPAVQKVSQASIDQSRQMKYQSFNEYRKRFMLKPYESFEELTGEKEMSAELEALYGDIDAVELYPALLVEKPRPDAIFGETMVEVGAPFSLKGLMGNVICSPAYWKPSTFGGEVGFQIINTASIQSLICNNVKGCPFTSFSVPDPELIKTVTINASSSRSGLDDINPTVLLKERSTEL
Protocol: Fresh blood was collected in heparinized tubes by syringe from volunteers with consent. The subjects had no apparent inflammatory conditions and had not taken any medication for at least 7 days prior to blood collection. 500 μl aliquots of human whole blood were incubated with either 2 μl DMSO vehicle or 2 μl of a test compound at final concentrations for 15 min at 37 C This was followed by incubation of the blood with 10 μl of 5 mg/ml lipopolysaccharide for 24 hr at 37 C for induction of COX-2. Appropriate PBS treatments (no LPS) were used as blanks. At the end of the incubation, the blood was centrifuged at 6000×g for 5 min at 4 C to obtain plasma. A 100 μl aliquot of plasma was mixed with 400 μl methanol for protein precipitation. The supernatant was obtained by centrifuging at 6000×g for 5 min at 4 C and was assayed for PGE2 using a radioimmunoassay kit after conversion of PGE2 to its methyl oximate derivative according to the manufacturer's procedure. For a test compound, the results were expressed as percent inhibition of PGE2 production relative to control incubations containing DMSO vehicle. The data were analyzed by that a test compound at the indicated concentrations was changed log value and was applied simple linear regression. IC50 value was calculated by least squares method.

[2] = molecular target: T2, COX-I (Homo sapiens, UniProt P23219); assay: Whole blood assay for COX-I (TXB2 production); assay type: cell-based
T2 construct: Fresh blood was collected by syringe without anticoagulants from volunteers with consent; from tissue; host or cells: fresh human whole blood from volunteers, no anticoagulant, allowed to clot
T2 sequence (P23219 24-599): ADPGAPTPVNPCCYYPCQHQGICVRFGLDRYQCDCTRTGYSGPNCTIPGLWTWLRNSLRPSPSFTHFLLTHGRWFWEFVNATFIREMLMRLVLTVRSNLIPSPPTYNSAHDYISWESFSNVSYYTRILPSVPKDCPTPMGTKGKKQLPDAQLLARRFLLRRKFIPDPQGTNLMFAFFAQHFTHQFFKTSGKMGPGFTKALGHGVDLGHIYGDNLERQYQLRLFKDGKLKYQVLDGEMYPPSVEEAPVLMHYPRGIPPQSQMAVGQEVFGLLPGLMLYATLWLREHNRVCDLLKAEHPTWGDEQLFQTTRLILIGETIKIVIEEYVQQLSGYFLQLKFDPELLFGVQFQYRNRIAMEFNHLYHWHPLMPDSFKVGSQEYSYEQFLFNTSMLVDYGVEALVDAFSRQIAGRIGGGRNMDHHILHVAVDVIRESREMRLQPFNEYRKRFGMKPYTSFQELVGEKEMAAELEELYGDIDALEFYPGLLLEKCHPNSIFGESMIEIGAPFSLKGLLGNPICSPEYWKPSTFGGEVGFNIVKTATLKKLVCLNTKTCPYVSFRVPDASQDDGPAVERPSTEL
Protocol: Fresh blood was collected by syringe without anticoagulants from volunteers with consent. The subjects had no apparent inflammatory conditions and had not taken any medication for at least 7 days prior to blood collection. 500 μl aliquots of human whole blood were immediately incubated with 2 μl of either DMSO vehicle or a test compound at final concentrations for 1 hr at 37 C. to allow the blood to clot. Appropriate treatments (no incubation) were used as blanks. At the end of the incubation, 5 μl of 250 mM Indomethacin was added to stop the reaction. The blood was centrifuged at 6000×g for 5 min at 4 C to obtain serum. A 100 μl aliquot of serum was mixed with 400 μl methanol for protein precipitation. The supernatant was obtained by centrifuging at 6000×g for 5 min at 4 C and was assayed for TXB2 using an enzyme immunoassay kit according to the manufacturer's procedure. For a test compound, the results were expressed as percent inhibition of TXB2 production relative to control incubations containing DMSO vehicle. The data were analyzed by that a test compound at the indicated concentrations was changed log value and was applied simple linear regression. IC50 value was calculated by least squares method.

[3] = tested on: platelet aggregation; assay: Inhibiting activity on aggregation of platelet (collagen-induced, platelet-rich plasma); assay type: cell-based; conditions: human platelet-rich plasma, collagen 0.5 μg/mL as agonist; read-out: IC50 (inhibition of platelet aggregation)
Protocol: Blood from healthy human volunteers was collected into plastic vessels containing 3.8% sodium citrate (1/10 volume). The subject had no taken any compounds for at least seven days prior to blood collection. Platelet-rich plasma was obtained from the supernatant fraction of blood after centrifugation at 1200 r.p.m. for 10 min. Platelet-poor plasma was obtained by centrifugation of the remaining blood at 3000 r.p.m. for 10 min.
Platelet aggregation was measured according to the turbidimetric method with an aggregometer (Hema Tracer). In the cuvette, platelet-rich plasma was pre-incubated for 2 min at 37 C after the addition of compounds or vehicle. In order to quantify the inhibitory effects of each compound, the maximum increase in light transmission was determined from the aggregation curve for 7 min after the addition of agonist. We used collagen as agonist of platelet aggregation in this study. The final concentration of collagen was 0.5 μg/mL. The effect of each compound was expressed as percentage inhibition agonist-induced platelet aggregation compared with vehicle treatment. Data are presented as the mean±S.E.M. for six experiments. The IC50 value was obtained by linear regression, and is expressed as the compound concentration required to produce 50% inhibition of agonist-induced platelet aggregation in comparison to vehicle treatment.

[4] = tested on: adjuvant arthritis in Lewis rats; assay: Analgesic activity: effect on adjuvant arthritis in rats (Randall-Selitto pain threshold); assay type: in vivo, rat; conditions: dose 3.2 mg/kg; ratio of mechanical pain threshold of treated vs non-treated arthritic rats, 2 hr after administration; ratio of 1.5 = effective dose
[5] = human whole blood, LPS 24 hr at 37 C, PGE2 production, read-out: COX-II IC50
[6] = human whole blood, 1 hr at 37 C, TXB2 production, read-out: COX-I IC50

Row | Compound | IC50 [1, 5] [nM] | IC50 [2, 6] [nM] | IC50 [3] [nM] | melting point [°C] | The coefficient of analgesic [4] | IC50 [1] [nM] | IC50 [2] [nM]
1 | COc1ccc(-c2nc(OCc3cc(C)on3)nn2-c2ccc(OC)cc2)cc1 [Example 19, 1,5-bis(4-methoxyphenyl)-3-[(5-methyl-3-isoxazolyl)methoxy]-1H-1,2,4-triazole] | > 100 | < 10 | < 20 |  |  |  | 
2 | COc1ccc(-c2nc(OCc3ccc(Cl)cc3)nn2-c2ccc(OC)cc2)cc1 [Example 26, 1,5-bis(4-methoxyphenyl)-3-(4-chlorophenylmethoxy)-1H-1,2,4-triazole] | > 100 | < 10 |  |  |  |  | 
3 | COc1ccc(-n2nc(OCC(F)(F)F)nc2-c2ccc(OC)nc2)cc1 [14-(3), 2-methoxy-5-(1-(4-methoxyphenyl)-3-(2,2,2-trifluoroethoxy)-1H-1,2,4-triazole-5-yl)pyridine] |  |  |  | 82 to 83 |  |  | 
4 | COc1ccc(-c2nc(OC(=O)N(C)C)nn2-c2ccc(OC)cc2)cc1 [Example 16, 1,5-bis(4-methoxyphenyl)-1H-1,2,4-triazol-3-yl dimethylcarbamate] |  |  |  | 121 to 123 |  | > 100 | < 10
5 | COc1ccc(-c2nc(OCC(=O)N(C)C)nn2-c2ccc(OC)cc2)cc1 [Example 21, 2-{[1,5-bis(4-methoxyphenyl)-1H-1,2,4-triazol-3-yl]oxy}-N,N-dimethylacetamide] | > 100 | < 10 |  |  |  |  | 
6 | COc1ccc(-c2nc(SC)nn2-c2ccc(OC)cc2)cc1 [6(4), 1,5-bis(4-methoxyphenyl)-3-(methylthio)-1H-1,2,4-triazole] | > 100 | < 10 |  |  |  |  | 

Further lines, with some results ahead:

Row | IC50 [1, 5] [nM] | IC50 [2, 6] [nM] | IC50 [3] [nM] | melting point [°C] | Compound | The coefficient of analgesic [4] | IC50 [1] [nM] | IC50 [2] [nM]
7 | > 100 | < 10 |  |  | COc1ccc(-c2nc(S(C)(=O)=O)nn2-c2ccc(OC)cc2)cc1 [6(6), 1,5-bis(4-methoxyphenyl)-3-(methylsulfonyl)-1H-1,2,4-triazole] |  |  | 
8 | > 100 | < 10 |  |  | COc1ccc(-c2nc(C(F)(F)F)nn2-c2ccc(OC)nc2)cc1 [12(2), 2-methoxy-5-[5-(4-methoxyphenyl)-3-(trifluoromethyl)-1H-1,2,4-triazol-1-yl]pyridine] |  |  | 
9 | > 100 | < 10 |  |  | COc1ccc(-c2nc(OC(C)C)nn2-c2ccc(OC)cc2)cc1 [Example 23, 1,5-bis(4-methoxyphenyl)-3-(2-propoxy)-1H-1,2,4-triazole] |  |  | 
10 | > 100 | < 10 |  |  | COc1ccc(-c2nc(OCc3cscn3)nn2-c2ccc(OC)cc2)cc1 [Example 20, 1,5-bis(4-methoxyphenyl)-3-(1,3-thiazol-4-ylmethoxy)-1H-1,2,4-triazole] |  |  | 
11 | > 100 | < 10 | < 20 |  | COc1ccc(-c2nc(C(F)(F)F)nn2-c2ccc(OC)cc2)cc1 [1(2), 1,5-bis(4-methoxyphenyl)-3-(trifluoromethyl)-1H-1,2,4-triazole] | >=1.5 |  | 
12 |  |  | < 20 |  | COc1ccc(-c2nc(OC)nn2-c2ccc(OC)cc2)cc1 [5(4), 3-Methoxy-1,5-bis(4-methoxyphenyl)-1H-1,2,4-triazole] | >=1.5 |  | 
13 | > 100 | < 10 | < 20 |  | COc1ccc(-c2nc(OC3CCCCC3)nn2-c2ccc(OC)cc2)cc1 [Example 25, 1,5-bis(4-methoxyphenyl)-3-cyclohexyloxy-1H-1,2,4-triazole] | >=1.5 |  | 
14 | > 100 | < 10 | < 20 | 63 to 64 | COc1ccc(-c2nc(OCC(F)(F)F)nn2-c2ccc(OC)nc2)cc1 [15-(4), 2-methoxy-5-(5-(4-methoxyphenyl)-3-(2,2,2-trifluoroethoxy)-1H-1,2,4-triazol-1-yl)pyridine] |  |  | 
15 | > 100 | < 10 |  |  | COc1ccc(-n2nc(C(F)(F)F)nc2-c2ccc(OC)nc2)cc1 [Example 8, 2-methoxy-5-[1-(4-methoxyphenyl)-3-(trifluoromethyl)-1H-1,2,4-triazol-5-yl]pyridine] |  |  | 
16 | > 100 | < 10 |  | 81 to 82 | C#CCOc1nc(-c2ccc(OC)cc2)n(-c2ccc(OC)cc2)n1 [Example 17, 1,5-bis(4-methoxyphenyl)-3-(2-propynyloxy)-1H-1,2,4-triazole] |  |  | 
